Source: the supplement of paper PMC10307832

How the values were obtained:
Experiment in all cases: relative viability (nuclei count vs DMSO), 5 days (fraction); higher = more cells survive
Apatinib + Lapatinib = compound: N#CC1(c2ccc(NC(=O)c3cccnc3NCc3ccncc3)cc2)CCCC1 [Apatinib] + CS(=O)(=O)CCNCc1ccc(-c2ccc3ncnc(Nc4ccc(OCc5cccc(F)c5)c(Cl)c4)c3c2)o1 [Lapatinib] (partner 2 µM)
Method in brief: (§1)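 Medians of duplicate plates are given as relative viability. That measure is the nuclei count in treated wells divided by the count in vehicle wells. Counts were taken on 4× images of lung cancer cell lines in 1536-well plates, 5 days after pin-tool dosing the day after seeding with one drug alone or a fixed anchor-drug dose plus five library-drug doses (not always all listed) in √10 steps.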

Apatinib + Foretinib = compound: N#CC1(c2ccc(NC(=O)c3cccnc3NCc3ccncc3)cc2)CCCC1 [Apatinib] + COc1cc2c(Oc3ccc(NC(=O)C4(C(=O)Nc5ccc(F)cc5)CC4)cc3F)ccnc2cc1OCCCN1CCOCC1 [Foretinib] (partner 0.25 µM)
Method in brief: as §1

Apatinib + Pemetrexed = compound: N#CC1(c2ccc(NC(=O)c3cccnc3NCc3ccncc3)cc2)CCCC1 [Apatinib] + Nc1nc2[nH]cc(CCc3ccc(C(=O)N[C@@H](CCC(=O)O)C(=O)O)cc3)c2c(=O)[nH]1 [Pemetrexed] (partner 0.2 µM)
Method in brief: as §1

Metformin + Crizotinib = compound: CN(C)C(=N)NC(=N)N [Metformin] + C[C@@H](Oc1cc(-c2cnn(C3CCNCC3)c2)cnc1N)c1c(Cl)ccc(F)c1Cl [Crizotinib] (partner 1 µM)
Method in brief: as §1

**Q.** How did the relative viability (Apatinib + Lapatinib; first compound 0.08 µM) turn out when NCI-H460 was run?
**A.** 0.915

**Q.** And the relative viability (Apatinib + Lapatinib; first compound 0.253 µM)?
**A.** 0.93

**Q.** What about the relative viability (Apatinib + Lapatinib; first compound 0.8 µM) of the same cell line?
**A.** 0.796

**Q.** What about the relative viability (Apatinib + Lapatinib; first compound 2.53 µM) of the same cell line?
**A.** 0.905

**Q.** What about the relative viability (Apatinib + Lapatinib; first compound 8 µM) of the same cell line?
**A.** 0.777

**Q.** And the relative viability (Apatinib + Foretinib; first compound 0.08 µM)?
**A.** 0.941

**Q.** And the relative viability (Apatinib + Foretinib; first compound 0.253 µM)?
**A.** 0.943

**Q.** And the relative viability (Apatinib + Foretinib; first compound 0.8 µM)?
**A.** 0.942

**Q.** What about the relative viability (Apatinib + Foretinib; first compound 2.53 µM) of the same cell line?
**A.** 1.04

**Q.** What about the relative viability (Apatinib + Foretinib; first compound 8 µM) of the same cell line?
**A.** 0.897

**Q.** What about the relative viability (Apatinib + Pemetrexed; first compound 0.08 µM) of the same cell line?
**A.** 0.0617

**Q.** And the relative viability (Apatinib + Pemetrexed; first compound 0.253 µM)?
**A.** 0.0695

**Q.** What about the relative viability (Apatinib + Pemetrexed; first compound 0.8 µM) of the same cell line?
**A.** 0.0575

**Q.** What about the relative viability (Apatinib + Pemetrexed; first compound 2.53 µM) of the same cell line?
**A.** 0.0757

**Q.** And the relative viability (Apatinib + Pemetrexed; first compound 8 µM)?
**A.** 0.0845

**Q.** What about the relative viability (Metformin + Crizotinib; first compound 31.62 µM) of the same cell line?
**A.** 0.734

**Q.** And the relative viability (Metformin + Crizotinib; first compound 100 µM)?
**A.** 0.778

**Q.** And the relative viability (Metformin + Crizotinib; first compound 316.23 µM)?
**A.** 0.829

**Q.** And the relative viability (Metformin + Crizotinib; first compound 1000 µM)?
**A.** 0.916
